Measured values: patent US20110046147A1, “17BETA-HYDROXYSTEROID DEHYDROGENASE TYPE 1 INHIBITORS FOR THE TREATMENT OF HORMONE-RELATED DISEASES” (UNIVERSITAT DES SAARLANDES, priority 2007, published 2011)

Experiments:
CYP2C19 = target: T1, CYP2C19 (Homo sapiens, UniProt P33261); assay: Inhibition of hepatic CYP enzymes: CYP2C19; assay type: biochemical; conditions: read-out: CYP2C19 IC50 (mean ± SD)
T1 construct: purchased Becton Dickinson GmbH (Heidelberg)
Description: (§1) Drug interactions (inhibition of hepatic CYP enzymes): The inhibition of six human hepatic cytochrome P450 enzymes by selected compounds was examined by means of the kit supplied by Becton Dickinson GmbH (Heidelberg).

CYP2C9 = target: T2, CYP2C9 (Homo sapiens, UniProt P11712); assay: Inhibition of hepatic CYP enzymes: CYP2C9; assay type: biochemical; conditions: read-out: CYP2C9 IC50 (mean ± SD)
T2 construct: purchased Becton Dickinson GmbH (Heidelberg)
T2 sequence (P11712 whole entry): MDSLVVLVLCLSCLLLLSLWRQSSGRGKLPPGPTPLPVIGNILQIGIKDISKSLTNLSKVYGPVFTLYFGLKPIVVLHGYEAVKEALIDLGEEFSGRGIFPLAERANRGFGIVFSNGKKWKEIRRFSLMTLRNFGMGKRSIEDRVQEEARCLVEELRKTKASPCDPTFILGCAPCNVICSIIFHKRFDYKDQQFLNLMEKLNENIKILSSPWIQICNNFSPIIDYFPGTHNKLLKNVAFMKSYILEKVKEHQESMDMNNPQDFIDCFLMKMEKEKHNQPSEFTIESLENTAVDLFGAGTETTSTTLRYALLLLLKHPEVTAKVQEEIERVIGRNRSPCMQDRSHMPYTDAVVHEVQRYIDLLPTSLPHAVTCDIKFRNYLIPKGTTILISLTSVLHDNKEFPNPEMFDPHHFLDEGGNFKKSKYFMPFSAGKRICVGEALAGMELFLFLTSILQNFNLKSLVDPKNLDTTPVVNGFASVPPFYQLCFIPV
Description: as §1

CYP2D6 = target: T3, CYP2D6 (Homo sapiens, UniProt P10635); assay: Inhibition of hepatic CYP enzymes: CYP2D6; assay type: biochemical; conditions: read-out: CYP2D6 IC50 (mean ± SD)
T3 construct: purchased Becton Dickinson GmbH (Heidelberg)
T3 sequence (P10635 whole entry): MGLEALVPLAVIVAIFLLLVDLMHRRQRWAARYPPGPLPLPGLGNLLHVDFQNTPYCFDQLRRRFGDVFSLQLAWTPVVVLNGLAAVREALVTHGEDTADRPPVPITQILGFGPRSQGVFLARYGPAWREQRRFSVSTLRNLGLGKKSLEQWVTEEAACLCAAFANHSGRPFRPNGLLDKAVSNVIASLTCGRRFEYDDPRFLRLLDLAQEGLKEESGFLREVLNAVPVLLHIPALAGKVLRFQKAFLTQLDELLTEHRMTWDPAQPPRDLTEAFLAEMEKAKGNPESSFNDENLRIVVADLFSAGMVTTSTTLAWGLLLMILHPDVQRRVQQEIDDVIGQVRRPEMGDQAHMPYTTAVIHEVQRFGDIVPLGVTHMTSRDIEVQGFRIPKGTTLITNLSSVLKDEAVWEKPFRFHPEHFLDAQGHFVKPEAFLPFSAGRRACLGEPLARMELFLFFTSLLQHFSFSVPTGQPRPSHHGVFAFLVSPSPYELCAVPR
Description: as §1

CaCo-2 cells = assay: CaCo2 transport assay; assay type: in vitro ADME; conditions: 50 μM in donor compartment
Method: (§2) Performance of selected compounds in a CaCo2 assay: Caco-2 cell culture and transport experiments were performed according to Yee (Yee, S., Pharm. Res., 14(6): 763-766 (1997)), but slight modifications were introduced. The cultivation times were reduced from 21 to 10 days by increasing the sowing density from 6.3·10^4 to 1.65·10^5 cells per well. […] The initial concentration of the compounds in the donor compartment was 50 μM (in buffer with 1% ethanol or DMSO). Samples were taken from the acceptor side after 60, 120 and 180 min and from the donor side after 0 and 180 min. For glycoprotein P (P-gp) studies, bidirectional experiments were performed. The absorptive and secretory permeabilities (Papp (a-b) and Papp (b-a)) were determined. Thus, erythromycin was used as a substrate, and verapamil was used as an inhibitor of P-gp. Each experiment was performed in triplicate. The integrity of the monolayer was determined by means of TEER (transepithelial electric resistance) and the permeability for each assay was determined using Lucifer Yellow. All samples of the CaCo-2 transport experiments were analyzed by means of LC/MS/MS after dilution with buffer (1:1 with 2% acetic acid). The apparent permeability coefficient (Papp) was calculated by means of the formula given below, where dQ/dt represents the recovery rate of the mass in the acceptor compartment, A represents the surface area of the transwell membrane, and c0 represents the initial concentration in the donor compartment.

17β-HSD2 = target: T4, 17β-HSD2 (Homo sapiens, UniProt P37059); assay: Inhibition of 17β-HSD2 (estradiol to estrone, radio-HPLC); assay type: biochemical; conditions: human placenta microsome fraction, 500 nM estradiol, NAD+ 1500 μM
T4 construct: from tissue; host or cells: human placenta, microsome fraction
T4 sequence (P37059 1-387): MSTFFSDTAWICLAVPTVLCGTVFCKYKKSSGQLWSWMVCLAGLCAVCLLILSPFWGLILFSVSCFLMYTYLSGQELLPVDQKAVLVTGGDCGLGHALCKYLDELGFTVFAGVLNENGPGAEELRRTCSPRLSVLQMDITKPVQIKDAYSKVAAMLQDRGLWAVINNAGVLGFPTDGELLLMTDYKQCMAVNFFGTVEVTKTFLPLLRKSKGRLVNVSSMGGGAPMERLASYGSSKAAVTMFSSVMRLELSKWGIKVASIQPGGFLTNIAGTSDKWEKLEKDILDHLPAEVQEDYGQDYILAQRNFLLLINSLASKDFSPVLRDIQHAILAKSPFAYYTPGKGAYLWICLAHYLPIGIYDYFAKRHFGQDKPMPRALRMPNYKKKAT

CaCo2 transport assay = assay type: in vitro ADME; conditions: human, Caco-2; 50 μM in donor compartment; read-out: Papp [cm/sec ± rel. SD]
Method: as §2

T1 sequence (P33261 whole entry): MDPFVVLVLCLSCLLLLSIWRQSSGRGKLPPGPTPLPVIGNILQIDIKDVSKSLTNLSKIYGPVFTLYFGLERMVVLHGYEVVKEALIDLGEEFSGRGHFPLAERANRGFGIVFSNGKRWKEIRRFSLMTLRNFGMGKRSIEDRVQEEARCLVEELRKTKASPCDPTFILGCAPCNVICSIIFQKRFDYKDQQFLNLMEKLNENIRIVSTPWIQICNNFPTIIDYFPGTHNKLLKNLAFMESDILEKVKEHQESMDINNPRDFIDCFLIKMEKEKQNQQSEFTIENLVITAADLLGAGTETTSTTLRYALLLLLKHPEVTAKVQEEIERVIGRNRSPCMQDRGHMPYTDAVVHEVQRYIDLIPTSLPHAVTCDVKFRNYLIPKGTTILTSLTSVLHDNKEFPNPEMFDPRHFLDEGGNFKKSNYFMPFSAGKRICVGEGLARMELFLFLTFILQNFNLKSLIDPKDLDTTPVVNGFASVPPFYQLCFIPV

Row | IC50 (CYP2C19) [µM] | IC50 (CYP2C9) [µM] | IC50 (CYP2D6) [µM] | Papp [cm/sec ± rel. SD] (CaCo-2 cells) | Permeability (class in words) (CaCo-2 cells) | IC50 (17β-HSD2) [µM] | Papp at 180 min, 50 μM (CaCo2 transport assay) [×10⁻⁶ cm/s] | Structure (SMILES)
1 | 4.2 ± 0.29 | 1.94 ± 0.1 | 22 ± 0.29 | (12.5 ± 9.0) · 10^−6 cm/sec | high | 2.3 |  | Oc1cccc(-c2ccc(-c3cccc(O)c3)cc2)c1 [Compound 42, [1,1′,4′,1″]Terphenyl-3,3′-diol]
2 | 3.37 ± 0.12 | 2.98 ± 0.02 | 6.99 ± 0.02 |  | high | 1.8 | 11.5 | Oc1ccc(-c2ccsc2-c2cccc(O)c2)cc1 [Compound 28, 3-[3-(4-Hydroxyphenyl)-2-thienyl]phenol]
